The record followed here is PMC10967572, “Induction of Oxidative Stress and Ferroptosis in Triple-Negative Breast Cancer Cells by Niclosamide via Blockade of the Function and Expression of SLC38A5 and SLC7A11” (Antioxidants, 2024).

For one assay, the system named is MB231 xenograft. Kind of assay: Mouse xenograft tumor growth. The format is in vivo. As to conditions: MB231 xenograft in nude mice; niclosamide 4 mg/kg daily intraperitoneal. On the procedure: Female athymic nude mice (4-week-old) were purchased from Jackson Laboratories and housed under standard conditions. MDA-MB231 cells were injected into lower mammary fat pad (5 × 10^6 cells). All cells were suspended in serum-free media and Matrigel (1:1 ratio), with 100 µL of suspension being injected into each mouse. Mice were treated by daily intraperitoneal injection of niclosamide (4 mg/kg/day) and vehicle (dimethylsulfoxide) control. The treatment began when the tumor size was 100–150 mm^3. Tumor size was measured biweekly with a caliper, with tumor volume calculated using the formula (width^2 × length)/2. Tumors were allowed to grow for 7 weeks; mice were then euthanized via isoflurane […] and tumors harvested. The animal study protocol was approved by the Texas Tech University Health Sciences Center Institutional Animal Care and Use Committee (IACUC protocol number 18005) and the experiments were conducted in the same institution. RNA and protein were prepared from the tumor tissue for qRT-PCR and Western blotting.

For a further assay, the target named is T1, SLC7A11 (Homo sapiens, UniProt Q9UPY5).
T1 construct: endogenous in cells; host or cells: TNBC cell lines MB231, TXBR100 and MB453
T1 sequence (Q9UPY5 1-501): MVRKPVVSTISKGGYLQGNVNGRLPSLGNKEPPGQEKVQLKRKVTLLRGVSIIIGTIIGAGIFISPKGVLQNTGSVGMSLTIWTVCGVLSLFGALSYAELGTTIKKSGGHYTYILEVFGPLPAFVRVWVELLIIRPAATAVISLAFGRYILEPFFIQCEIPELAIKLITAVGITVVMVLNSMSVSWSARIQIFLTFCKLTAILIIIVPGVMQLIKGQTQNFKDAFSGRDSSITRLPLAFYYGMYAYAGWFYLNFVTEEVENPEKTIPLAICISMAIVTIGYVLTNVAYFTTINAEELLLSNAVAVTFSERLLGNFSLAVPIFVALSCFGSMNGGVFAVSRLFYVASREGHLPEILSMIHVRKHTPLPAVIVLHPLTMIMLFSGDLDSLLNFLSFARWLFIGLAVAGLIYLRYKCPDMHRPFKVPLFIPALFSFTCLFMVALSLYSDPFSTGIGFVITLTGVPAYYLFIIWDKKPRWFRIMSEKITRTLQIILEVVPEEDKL
T1 sequence (P08195 1-529 partner): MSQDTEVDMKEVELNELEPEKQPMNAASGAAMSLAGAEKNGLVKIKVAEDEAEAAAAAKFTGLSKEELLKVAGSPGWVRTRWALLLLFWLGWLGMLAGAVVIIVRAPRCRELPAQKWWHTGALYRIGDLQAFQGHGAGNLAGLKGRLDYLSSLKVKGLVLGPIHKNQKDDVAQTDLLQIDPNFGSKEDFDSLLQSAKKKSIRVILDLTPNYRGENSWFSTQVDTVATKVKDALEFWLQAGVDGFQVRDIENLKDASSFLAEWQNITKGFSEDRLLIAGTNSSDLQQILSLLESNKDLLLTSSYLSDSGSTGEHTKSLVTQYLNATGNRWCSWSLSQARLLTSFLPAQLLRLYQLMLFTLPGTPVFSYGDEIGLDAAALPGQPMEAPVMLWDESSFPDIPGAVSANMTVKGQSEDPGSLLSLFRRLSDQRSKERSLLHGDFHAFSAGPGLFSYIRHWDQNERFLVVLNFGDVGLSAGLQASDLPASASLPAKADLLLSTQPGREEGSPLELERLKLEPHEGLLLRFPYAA
Kind of assay: Direct inhibition of SLC7A11 transport activity ([3H]-glutamate uptake) in TNBC cells. The format is cell-based. As for the experimental part:
However, we routinely measure the activity of this transporter by cellular uptake of [^3H]-glutamate under Na^+-free conditions. Under these conditions, SLC7A11 mediates the cellular entry of [^3H]-glutamate in exchange for intracellular unlabeled glutamate. […] Non-carrier-mediated uptake (i.e, diffusional component) was determined by measuring the uptake of [^3H]-glutamate in the presence of excess unlabeled glutamate (5 mM). The transport activity of SLC7A11 was calculated by subtracting the diffusional component from total uptake.
Confluent cultures were used for uptake measurements.

A further assay concerns GPX4, FTH1, p-S6K. Kind of assay: Western blot of GPX4, ferritin heavy chain and p-S6K in TNBC cells. In kind it is cell-based, human. As to conditions: niclosamide 2 μM, 24 h. On the procedure: (§1) Cells and tumor tissues were lysed in Pierce™ RIPA buffer (ThermoFisher Scientific, Waltham, MA, USA) supplemented with Halt™ Protease and Phosphatase Inhibitor Cocktail (ThermoFisher Scientific, Waltham, MA, USA). Homogenates were centrifuged, and supernatants were used for protein measurement via Pierce™ BCA Protein Assay Kit (ThermoFisher Scientific, Waltham, MA, USA). […] Western blot samples were prepared in Laemmli sample buffer (Bio-Rad Laboratories, Hercules, CA, USA). They were loaded onto a SDS–PAGE gel and transferred onto a PVDF membrane (Bio-Rad Laboratories, Hercules, CA, USA). The membrane was blocked and antibodies diluted in 5% nonfat dry milk (Bio-Rad Laboratories, Hercules, CA, USA) or in 5% bovine serum albumin (Irvine Scientific, Santa Ana, CA, USA) were used. Protein bands were visualized using Pierce™ ECL Western Blotting Substrate (ThermoFisher Scientific, Waltham, MA, USA) and developed on the autoradiography film (Santa Cruz, Dallas, TX, USA). Primary antibodies were purchased either from Cell Signaling (Danvers, MA, USA) [anti-GPX4 (#52455), anti-FTH (#4393), anti-HSP60 (#12165), anti-phospho-p70S6K (#9205), anti-p70S6K (#2708)] or from Abcam (Waltham, MA, USA) [Nrf2 (#ab62352)]. Secondary antibody Horseradish peroxidase-conjugated goat anti-rabbit IgG (#1706515) was purchased from Bio-Rad Laboratories (Hercules, CA, USA). For quantification of protein levels by the densitometric analysis, the experiment was carried out in triplicate and the data were collected from the resultant three Western blots.

In the next assay the test system is Nrf2. Kind of assay: Nrf2 expression and subcellular localization (immunostaining, Western blot, qRT-PCR) in TNBC cells. In kind it is cell-based, human. As to conditions: niclosamide 2 μM, 24 h; for Nrf2 protein level: Western blot; for Nrf2 mRNA level: qRT-PCR. As for the experimental part:
Total RNA was extracted from cells using TRIzol Reagent (ThermoFisher Scientific, Waltham, MA, USA) and the RNA was reverse-transcribed using a high-capacity cDNA reverse transcription kit (ThermoFisher Scientific, Waltham, MA, USA) according to the manufacturer’s protocol. Quantitative RT-PCR was performed with Takara Taq Hot Start Version (TaKaRa Biotechnology, Shiga, Japan) or Power SYBR Green PCR master mix (Bio-Rad, Hercules, CA, USA). Primer sequences are shown in Supplemental Table S1. The relative mRNA expression was determined by the 2^−∆∆Ct method. Additionally, 18S was used as a housekeeping gene for normalization.
as §1

With `O=C(Nc1ccc([N+](=O)[O-])cc1Cl)c1cc(Cl)ccc1O` [niclosamide], in the assay with MB231 xenograft, the “growth of the tumors” value is recorded as “drastic reduction”. Further, the “affinity for SLC7A11 relative to experimental value known for erastin” value at SLC7A11 (niclosamide IC50 vs erastin literature value) is recorded as “at least three-to-four times greater”. Also, the IC50 against SLC7A11 (three TNBC cell lines (MB231, TXBR100, MB453), niclosamide present only during uptake, Na+-free buffer pH 7.5) was about 300 nM. Moreover, the “glutathione peroxidase 4 protein levels” value in the assay with GPX4, FTH1, p-S6K (MB231 and TXBR100) was “decreased”. The ferritin levels entry in the assay with GPX4, FTH1, p-S6K (MB231 and TXBR100 (more pronounced in TXBR100)) is recorded as “lower”. Further, in the assay with GPX4, FTH1, p-S6K (both TNBC cell lines), the “p70S6K and phospho-p70S6K levels (mTOR signaling)” value is on record as “profound decrease”. In the assay with Nrf2 (MB231), the Nrf2 protein level entry is reported as “decreased” and the “Nrf2 mRNA level” value was “decreased”. Moreover, in the assay with Nrf2 (TXBR100), the Nrf2 protein level result is listed as “significantly decreased” and the “Nrf2 mRNA level” value was “did not alter”.
